Laboratory results: ChEMBL document CHEMBL1909046, “DrugMatrix in vitro pharmacology data”

Legend:
[1] = target: T1, Neuropeptide Y receptor type 2 (Homo sapiens, UniProt P49146); type: cell membranes, Membrane; conditions: kan-ts; note: in other assays of this panel Not Active means under 50% inhibition at 10 µM
T1 sequence (P49146 whole entry): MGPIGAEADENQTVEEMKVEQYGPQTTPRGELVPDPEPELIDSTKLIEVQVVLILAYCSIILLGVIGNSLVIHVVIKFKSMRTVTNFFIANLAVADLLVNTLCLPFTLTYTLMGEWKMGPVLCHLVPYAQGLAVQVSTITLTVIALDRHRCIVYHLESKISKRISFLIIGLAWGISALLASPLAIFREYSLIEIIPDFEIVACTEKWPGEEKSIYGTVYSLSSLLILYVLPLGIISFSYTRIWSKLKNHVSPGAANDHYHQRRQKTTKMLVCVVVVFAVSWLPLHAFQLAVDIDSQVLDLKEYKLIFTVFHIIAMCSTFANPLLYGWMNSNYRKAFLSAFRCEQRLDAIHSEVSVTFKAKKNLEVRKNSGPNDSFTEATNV

[2] = DRUGMATRIX: Glutamate, NMDA, Phencyclidine radioligand binding (ligand: [3H] TCP); type: cell membranes, Rattus norvegicus, Wistar, Cerebral cortex, Membrane; conditions: Not Active = under 50% inhibition at 10 µM
[3] = target: T2, Angiotensin-converting enzyme (Oryctolagus cuniculus, UniProt P12822); experiment: biochemical; type: tissue-based, Lung;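 note: enzymatic inhibition of angiotensin-converting enzyme measured with FAPGG as the substrate; in other assays of this panel Not Active means under 50% inhibition at 10 µM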
T2 sequence (P12822 whole entry): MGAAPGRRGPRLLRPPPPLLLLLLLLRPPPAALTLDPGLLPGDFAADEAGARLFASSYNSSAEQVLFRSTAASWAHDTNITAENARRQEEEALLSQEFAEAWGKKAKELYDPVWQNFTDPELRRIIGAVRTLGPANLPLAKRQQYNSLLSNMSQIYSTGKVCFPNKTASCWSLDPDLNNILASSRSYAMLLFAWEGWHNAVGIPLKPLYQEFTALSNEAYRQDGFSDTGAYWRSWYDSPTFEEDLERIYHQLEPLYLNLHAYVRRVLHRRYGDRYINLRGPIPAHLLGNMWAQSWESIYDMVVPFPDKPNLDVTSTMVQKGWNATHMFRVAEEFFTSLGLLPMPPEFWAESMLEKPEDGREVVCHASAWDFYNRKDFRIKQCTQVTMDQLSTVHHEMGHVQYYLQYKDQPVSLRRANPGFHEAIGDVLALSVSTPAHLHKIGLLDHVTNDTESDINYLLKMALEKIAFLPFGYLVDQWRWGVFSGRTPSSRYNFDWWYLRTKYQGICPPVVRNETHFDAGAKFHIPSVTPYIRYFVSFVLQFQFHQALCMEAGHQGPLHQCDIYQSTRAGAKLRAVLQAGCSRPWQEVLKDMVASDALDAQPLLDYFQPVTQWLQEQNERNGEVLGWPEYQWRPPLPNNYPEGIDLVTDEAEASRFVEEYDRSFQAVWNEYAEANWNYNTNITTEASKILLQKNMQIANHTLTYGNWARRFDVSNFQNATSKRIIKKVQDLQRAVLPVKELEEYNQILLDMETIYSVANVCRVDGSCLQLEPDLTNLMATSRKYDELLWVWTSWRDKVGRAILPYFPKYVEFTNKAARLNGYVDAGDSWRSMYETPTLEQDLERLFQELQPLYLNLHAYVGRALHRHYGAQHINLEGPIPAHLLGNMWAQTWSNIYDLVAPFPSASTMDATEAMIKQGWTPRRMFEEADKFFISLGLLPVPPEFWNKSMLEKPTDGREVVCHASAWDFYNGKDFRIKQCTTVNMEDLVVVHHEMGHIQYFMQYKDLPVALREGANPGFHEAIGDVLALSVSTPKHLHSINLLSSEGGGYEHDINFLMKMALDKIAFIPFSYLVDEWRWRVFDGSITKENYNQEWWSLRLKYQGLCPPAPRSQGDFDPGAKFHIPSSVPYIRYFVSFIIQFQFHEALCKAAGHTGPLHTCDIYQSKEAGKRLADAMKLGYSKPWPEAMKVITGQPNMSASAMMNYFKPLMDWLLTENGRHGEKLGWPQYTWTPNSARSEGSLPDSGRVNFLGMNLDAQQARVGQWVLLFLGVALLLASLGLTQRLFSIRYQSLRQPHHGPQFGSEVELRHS

[4] = target: T3, Neuropeptide Y receptor type 1 (Homo sapiens, UniProt P25929); type: cell membranes, Membrane; conditions: sk-n-mc; note: in other assays of this panel Not Active means under 50% inhibition at 10 µM
T3 sequence (P25929 whole entry): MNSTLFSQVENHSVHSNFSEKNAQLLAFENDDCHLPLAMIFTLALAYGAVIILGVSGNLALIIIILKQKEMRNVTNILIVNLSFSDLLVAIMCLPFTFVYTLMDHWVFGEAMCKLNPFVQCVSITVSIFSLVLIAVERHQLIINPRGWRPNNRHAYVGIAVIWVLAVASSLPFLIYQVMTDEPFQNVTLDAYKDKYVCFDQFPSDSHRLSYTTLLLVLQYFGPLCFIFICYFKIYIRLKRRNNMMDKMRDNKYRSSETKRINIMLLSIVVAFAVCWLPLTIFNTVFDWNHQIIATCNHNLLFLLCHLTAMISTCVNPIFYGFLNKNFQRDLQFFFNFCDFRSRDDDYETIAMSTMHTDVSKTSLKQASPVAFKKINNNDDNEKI

[5] = DRUGMATRIX: Imidazoline I2, Central radioligand binding (ligand: [3H] Idazoxan); type: cell membranes, Rattus norvegicus, Wistar, Cerebral cortex, Membrane; conditions: Not Active = under 50% inhibition at 10 µM
[6] = DRUGMATRIX: Glutamate, Kainate radioligand binding (ligand: [3H] Kainic acid); type: cell membranes, Rattus norvegicus, Wistar, Brain, Membrane; conditions: Not Active = under 50% inhibition at 10 µM
[7] = DRUGMATRIX: beta-Lactamase enzyme inhibition (substrate: Nitrocefin); parameters: species or system Bacillus cereus; conditions: Not Active = under 50% inhibition at 10 µM
[8] = target: T4, B2 bradykinin receptor (Homo sapiens, UniProt P30411); type: cell membranes, Membrane; conditions: chem-1; note: in other assays of this panel Not Active means under 50% inhibition at 10 µM
T4 sequence (P30411 whole entry): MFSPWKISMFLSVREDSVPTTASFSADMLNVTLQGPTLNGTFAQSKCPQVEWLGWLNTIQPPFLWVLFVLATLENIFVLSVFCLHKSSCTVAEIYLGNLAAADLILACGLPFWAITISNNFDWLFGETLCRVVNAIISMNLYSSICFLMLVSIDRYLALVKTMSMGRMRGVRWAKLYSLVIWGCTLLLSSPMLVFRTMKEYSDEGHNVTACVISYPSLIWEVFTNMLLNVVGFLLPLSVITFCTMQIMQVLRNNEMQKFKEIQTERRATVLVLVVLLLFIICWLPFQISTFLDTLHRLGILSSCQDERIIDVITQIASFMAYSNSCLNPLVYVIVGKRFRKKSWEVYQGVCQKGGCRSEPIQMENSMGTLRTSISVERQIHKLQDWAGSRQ

CC(C)Cc1ccc([C@H](C)C(=O)O)cc1 [DEXIBUPROFEN]
Not Active: IC50 [1] | IC50 [2] | Ki [2] | IC50 [3] | IC50 [4] | IC50 [5] | Ki [5] | IC50 [6] | Ki [6] | IC50 [7] | Ki [7] | IC50 [8]

NS(=O)(=O)c1cc(C(=O)O)c(NCc2ccco2)cc1Cl [FUROSEMIDE]
Not Active: IC50 [1] | IC50 [2] | Ki [2] | IC50 [3] | IC50 [4] | IC50 [5] | Ki [5] | IC50 [6] | Ki [6] | IC50 [7] | Ki [7] | IC50 [8]

C[C@H]1C[C@H]2[C@@H]3CCC4=CC(=O)C=C[C@]4(C)[C@@]3(F)[C@@H](O)C[C@]2(C)[C@@]1(O)C(=O)CO [BETAMETHASONE]
Not Active: IC50 [1] | IC50 [2] | Ki [2] | IC50 [3] | IC50 [4] | IC50 [5] | Ki [5] | IC50 [6] | Ki [6] | IC50 [7] | Ki [7] | IC50 [8]

COC(=O)C[C@](O)(CCC(C)(C)O)C(=O)O[C@@H]1C(OC)=C[C@]23CCCN2CCc2cc4c(cc2[C@H]13)OCO4 [HARRINGTONINE]
Not Active: IC50 [1] | IC50 [2] | Ki [2] | IC50 [3] | IC50 [4] | IC50 [5] | Ki [5] | IC50 [6] | Ki [6] | IC50 [7] | Ki [7] | IC50 [8]

CC(C)(c1ccc(O)cc1)c1ccc(O)cc1 [BISPHENOL A]
Not Active: IC50 [1] | IC50 [2] | Ki [2] | IC50 [3] | IC50 [4] | IC50 [5] | Ki [5] | IC50 [6] | Ki [6] | IC50 [7] | Ki [7] | IC50 [8]

CCN1CCN(C(=O)N[C@@H](C(=O)N[C@@H]2C(=O)N3[C@@H]2SC(C)(C)[C@@H]3C(=O)O)c2ccccc2)C(=O)C1=O [PIPERACILLIN]
Not Active: IC50 [1] | IC50 [2] | Ki [2] | IC50 [3] | IC50 [4] | IC50 [5] | Ki [5] | IC50 [6] | Ki [6] | IC50 [7] | Ki [7] | IC50 [8]

CC[C@H]1OC(=O)[C@H](C)[C@@H](O[C@H]2C[C@@](C)(OC)[C@@H](O)[C@H](C)O2)[C@H](C)[C@@H](O[C@@H]2O[C@H](C)C[C@H](N(C)C)[C@H]2O)[C@](C)(O)C[C@@H](C)C(=O)[C@H](C)[C@@H](O)[C@]1(C)O [ERYTHROMYCIN]
Not Active: IC50 [1] | IC50 [2] | Ki [2] | IC50 [3] | IC50 [4] | IC50 [5] | Ki [5] | IC50 [6] | Ki [6] | IC50 [7] | Ki [7] | IC50 [8]

NC(N)=Nc1nc(CSCCC(N)=NS(N)(=O)=O)cs1 [FAMOTIDINE]
Not Active: IC50 [1] | IC50 [2] | Ki [2] | IC50 [3] | IC50 [4] | IC50 [5] | Ki [5] | IC50 [6] | Ki [6] | IC50 [7] | Ki [7] | IC50 [8]

CN(CCOc1ccc(C[C@H](Nc2ccccc2C(=O)c2ccccc2)C(=O)O)cc1)c1ccccn1
Not Active: IC50 [1] | IC50 [2] | Ki [2] | IC50 [3] | IC50 [4] | IC50 [5] | Ki [5] | IC50 [6] | Ki [6] | IC50 [7] | Ki [7] | IC50 [8]

COc1cc(NC(C)CCCN)c2ncccc2c1 (stereo not given) [PRIMAQUINE]
Not Active: IC50 [1] | IC50 [2] | Ki [2] | IC50 [3] | IC50 [4] | IC50 [5] | Ki [5] | IC50 [6] | Ki [6] | IC50 [7] | Ki [7] | IC50 [8]
